Measured values published in patent US9303017B2, “2,5-disubstituted-pyridyl nicotinic ligands, and methods of use thereof” (Georgetown University, priority 2011, dated 2016).
Structures can show the parent of a compound that is named as a salt. Where two headings read alike, the source gives them in different places.

Columns and labels:
[1] = molecular target: α2β4 nAChR (Rattus norvegicus (Rat), UniProt P12389+P12392); assay: [3H]-epibatidine competition binding, α2β4; conditions: Table 1; mean of 3 to 5 measurements
Experimental: (§1) In Vitro Binding Affinities for nAChR Subtypes. […] To determine selectivities of these compounds in binding assays among the three predominant nAChR subtypes, α3β4, α4β2 and α7, the ratios of Ki values (α3β4/α4β2 and α7/α4β2) were determined.
(§2) Cell Lines and Cell Culture. The cell lines expressing defined rat nAChR subtypes were established previously by stably transfecting HEK 293 cells with rat nAChR subunit genes. The cell line expressing human α4β2 nAChRs, YXα4β2H1, was established recently. These cell lines were maintained in minimum essential medium (MEM) supplemented with 10% fetal bovine serum, 100 units/mL penicillin G, […] and selective antibiotics at 37° C. with 5% CO2 in a humidified incubator. Fetal bovine serum was provided by Gemini Bio-Products (Woodland, Calif.). […]
(§3) Briefly, cultured cells at >80% confluence were removed from their flasks (80 cm^2) with a disposable cell scraper and placed in 10 mL of 50 mM Tris.HCl buffer (pH 7.4, 4° C.). […] The filter-retained radioactivity was measured by liquid scintillation counting. […] Data from competition binding assays were analyzed using Prism 5 (GraphPad Software, San Diego, Calif.).
(§4) Pharmacological Properties. We measured the in vitro binding affinities of the ligands for defined receptor subtypes (α2β2, α2β4, α3β2, α3β4, α4β2, α4β4, α6β2, α6β4, and α7) expressed in stably transfected cell lines. […]

[2] = molecular target: α2β2 nAChR (Rattus norvegicus (Rat), UniProt P12389+P12390); assay: [3H]-epibatidine competition binding, α2β2; conditions: Table 1; mean of 3 to 5 measurements
Experimental: as §1, §2, §3, §4

[3] = molecular target: α4β4 nAChR (Rattus norvegicus (Rat), UniProt P09483+P12392); assay: [3H]-epibatidine competition binding, α4β4; conditions: Table 1; mean of 3 to 5 measurements
Experimental: as §1, §2, §3, §4

[4] = molecular target: α3β4 nAChR (Rattus norvegicus (Rat), UniProt P04757+P12392); assay: [3H]-epibatidine competition binding, α3β4
Experimental: as §1
(§5) Cell Lines and Cell Culture. The cell lines expressing defined rat nAChR subtypes were established previously by stably transfecting HEK 293 cells with rat nAChR subunit genes. The cell line expressing human α4β2 nAChRs, YXα4β2H1, was established recently. These cell lines were maintained in minimum essential medium (MEM) supplemented with 10% fetal bovine serum, 100 units/mL penicillin G, […] and selective antibiotics at 37° C. with 5% CO2 in a humidified incubator. Fetal bovine serum was provided by Gemini Bio-Products (Woodland, Calif.). Tissue culture medium and antibiotics were obtained from Invitrogen Corporation (Carlsbad, Calif.), unless otherwise stated.
(§6) Briefly, cultured cells at >80% confluence were removed from their flasks (80 cm^2) with a disposable cell scraper and placed in 10 mL of 50 mM Tris.HCl buffer (pH 7.4, 4° C.). The cell suspension was centrifuged at 10,000×g for 5 min and the pellet was collected. The cell pellet was then homogenized in 10 mL buffer with a polytron homogenizer and centrifuged at 36,000 g for 10 min at 4° C. The membrane pellet was resuspended in fresh buffer, and aliquots of the membrane preparation were used for binding assays. […] Bound and free ligands were separated by vacuum filtration through Whatman GF/C filters treated with 0.5% polyethylenimine. The filter-retained radioactivity was measured by liquid scintillation counting. Specific binding was defined as the difference between total binding and nonspecific binding. Data from competition binding assays were analyzed using Prism 5 (GraphPad Software, San Diego, Calif.).
(§7) Pharmacological Properties. We measured the in vitro binding affinities of the ligands for defined receptor subtypes (α2β2, α2β4, α3β2, α3β4, α4β2, α4β4, α6β2, α6β4, and α7) expressed in stably transfected cell lines. […] Rat forebrain homogenates were included to allow comparison between the heterologous and native α4β2 and α7 nAChRs. See Table 1 for binding affinity values (Ki) of the ligands at the three major nAChR subtypes (α3β4. α4β2 and α7).

[5] = molecular target: human α4β2 nAChRs (Homo sapiens (Human), UniProt P17787+P43681); assay: 86Rb+ efflux assay (activation and desensitization), α4β2; type: cell-based; conditions: for IC50: desensitization; for Emax: read-out: Emax α4β2 nAChRs
Experimental: (§8) In Vitro Effects on nAChR Function. […] Their agonist activities were assessed by measuring stimulated ^86Rb^+ efflux from stably transfected cells, either expressing human α4β2 nAChRs or rat α3β4 receptors.
as §5
(§9) ^86Rb^+ Efflux Assay. Functional properties of compounds at nAChRs expressed in the transfected cells were measured using ^86Rb^+ efflux assays as described previously. In brief, cells expressing human α4β2 or rat α3β4 nAChRs were plated into 24-well plates coated with poly-D-lysine. The plated cells were grown at 37° C. for 18 to 24 hour to reach 85-95% confluence. The cells were then incubated in growth medium (0.5 mL/well) containing ^86Rb^+ (2 μCi/mL) for 4 hour at 37° C. The loading mixture was then aspirated, and the cells were washed four times with 1 mL buffer (15 mM HEPES, 140 mM NaCl, 2 mM KCl, 1 mM MgSO4, 1.8 mM CaCl2, 11 mM Glucose, pH 7.4). One mL of buffer with or without compounds to be tested was then added to each well. After incubation for 2 min, the assay buffer was collected for measurements of ^86Rb^+ released from the cells. Cells were then lysed by adding 1 mL of 100 mM NaOH to each well, and the lysate was collected for determination of the amount of ^86Rb^+ that was in the cells at the end of the efflux assay. Radioactivity of assay samples and lysates was measured by liquid scintillation counting. Total loading (cpm) was calculated as the sum of the assay sample and the lysate of each well. The amount of ^86Rb^+ efflux was expressed as a percentage of ^86Rb^+ loaded. […] For obtaining EC50 and Emax values, stimulation curves were constructed in which 8 different concentrations of a ligand were included in the assay. […] EC50, Emax and IC50(10′) values were determined by nonlinear least-squares regression analyses (GraphPad, San Diego, Calif.).
(§10) The functional properties of the ligands were determined by ^86Rb^+ efflux assays in cells expressing α3β4 and α4β2 nAChR subtypes. The functional activity of each ligand was measured for its agonism, antagonism and desensitization ability. Agonist activity for each of the ligands was tested at eight different concentrations. […] The full concentration-effect curves generated potency (EC50) and efficacy (Emax) of each ligand. […] We tested each ligand for antagonist activity at eight concentrations. The potency (IC50(0′)) of each ligand as an antagonist was derived from the full concentration-effect curves.

[6] = molecular target: α3β2 nAChR (Rattus norvegicus (Rat), UniProt P04757+P12390); assay: [3H]-epibatidine competition binding, α3β2; conditions: Table 1; mean of 3 to 5 measurements
Experimental: as §1, §2, §3, §4

[7] = molecular target: rat α3β4 nAChRs (Rattus norvegicus (Rat), UniProt P04757+P12392); assay: 86Rb+ efflux assay (activation and desensitization), α3β4; type: cell-based
Experimental: as §8, §5, §9, §10

[8] = molecular target: α7 nAChR (Rattus norvegicus (Rat), UniProt Q05941); type: binding
Experimental: as §1, §5, §6, §7

[9] = molecular target: α4β2 nAChR (Rattus norvegicus (Rat), UniProt P09483+P12390); assay: biochemical; type: binding; conditions: for Ki Ratio α3β4/α4β2: selectivity for α4β2 over α3β4; for Ki Ratio α7/α4β2: selectivity for α4β2 over α7
Experimental: as §1, §5, §6, §7

[10] = Table 1, mean of 3 to 5 measurements
[11] = agonist efficacy normalized to Emax of nicotine, ND = no significant stimulated efflux detected
[12] = 10 min pre-treatment, Table 3 (Example 4), read-out: IC50(10′) α4β2
[13] = 10 min pre-incubation before 100 μM nicotine, Table 2, read-out: IC50(10′) α4β2 nAChRs
[14] = read-out: IC50(10′) α3β4 nAChRs

Compound | Ki [4, 10] [µM] | Ki ([4]; Table 3 (Example 4)) [µM] | IC50 [5, 12] [µM] | IC50 [5, 13] [µM] | IC50 ([7]; read-out: IC50(10′) α3β4) [µM] | IC50 [7, 14] [µM] | Ki [8, 10] [µM] | Ki ([8]; Table 3 (Example 4)) [µM] | Ki Ratio α3β4/α4β2 [9] | Ki Ratio α7/α4β2 [9] | further results
Cc1ncc(C#CCCCCF)cc1OC[C@@H]1CCN1 [(S)-22, (S)-3-(azetidin-2-ylmethoxy)-5-(6-fluorohex-1-ynyl)-2-methylpyridine] | 150 | 130 | 0.14 | 0.13 | 13 | > 10 | 150 | 150 |  |  | Ki [1]: 24 µM; Ki [2]: 0.0087 µM; Ki [3]: 3 µM; Emax α4β2 nAChRs [5, 11]: didn't show detectable agonist activity; Ki [6]: 0.23 µM
CCCCC#Cc1cnc(C)c(OC[C@H]2CCCN2)c1 [(R)-16, (R)-5-(hex-1-ynyl)-2-methyl-3-(pyrrolidin-2-ylmethoxy) pyridine] |  | 22 |  |  |  |  | 110 |  | 22 | 11 | Ki ([9]; Table 3 (Example 4), read-out: Ki α4β2): 9.9 µM
CN1CCC[C@H]1c1cccnc1 [(—)-Nicotine, (−)-nicotine, reference compound] |  |  |  |  |  |  |  |  |  |  | Emax [5]: 100%; Emax α3β4 nAChRs [7]: full agonist activities
CCCCC#Cc1cnc(C(F)(F)F)c(OC[C@@H]2CCN2)c1 [compound 32, (S)-3-(azetidin-2-ylmethoxy)-5-(hex-1-ynyl)-2-(trifluoromethyl)pyridine hydrochloride] | > 100 |  |  |  |  |  |  |  |  |  | Ki [9]: > 100 µM
Cc1ncc(C#CCCCCO)cc1OC[C@@H]1CCN1 [(S)-17, (S)-6-(5-(azetidin-2-ylmethoxy)-6-methylpyridin-3-yl)hex-5-yn-1-ol] |  | 250 | 0.042 | 0.051 | 50 | > 10 |  | 170 | 70,000 | 40,000 | Ki ([9]; Table 1, mean of 3 to 5 measurements, read-out: Ki α4β2): 0.0043 µM; reduction in binding affinity for α4β2 nAChRs ([9]; relative to Sazetidine-A): 70 fold; EC50 ([5]; agonist activity, ND = no significant stimulated efflux detected): 0.063 µM; Emax [5, 11]: < 20%
